Measured values: patent US11504385B2, “Proteolysis targeting chimeric molecule, preparation method, and application” (CHINA PHARMACEUTICAL UNIVERSITY, priority 2019, dated 2022)

Experiments:
Format in all cases: cell-based
[1] = system: HEK293T; experiment: Cell viability test, HEK293T; settings: non-BCR-ABL dependent cell line
[2] = system: K562 cell line; experiment: Cell viability test (CellTiter-Glo), K562
Experimental: (§1) The operation method of the K562 cell viability test is as follows:
(§2) 50 μL of K562, MCF-7, HCT116 and A549 cell suspensions were added to a 96-well plate and incubated for 12 hours. 10 μL of compound was added to the well and incubated for 48 hours. Operation was performed according to a CellTiter-Glo® luminescent cell viability assay kit (Promega). Nonlinear regression analysis data in GraphPad Prism 6 was used.

[3] = biological target: T1, ABL (Homo sapiens, UniProt P00519); experiment: Simulated light control, ABL level in K562 cells (immunoblotting); settings: 100 nM for 24 hours, then fresh medium
T1 construct: degradation effect of the compound 4C on c-ABL and BCR-ABL proteins in K562 cells; endogenous in cells; host or cells: K562
T1 sequence (P00519 whole entry): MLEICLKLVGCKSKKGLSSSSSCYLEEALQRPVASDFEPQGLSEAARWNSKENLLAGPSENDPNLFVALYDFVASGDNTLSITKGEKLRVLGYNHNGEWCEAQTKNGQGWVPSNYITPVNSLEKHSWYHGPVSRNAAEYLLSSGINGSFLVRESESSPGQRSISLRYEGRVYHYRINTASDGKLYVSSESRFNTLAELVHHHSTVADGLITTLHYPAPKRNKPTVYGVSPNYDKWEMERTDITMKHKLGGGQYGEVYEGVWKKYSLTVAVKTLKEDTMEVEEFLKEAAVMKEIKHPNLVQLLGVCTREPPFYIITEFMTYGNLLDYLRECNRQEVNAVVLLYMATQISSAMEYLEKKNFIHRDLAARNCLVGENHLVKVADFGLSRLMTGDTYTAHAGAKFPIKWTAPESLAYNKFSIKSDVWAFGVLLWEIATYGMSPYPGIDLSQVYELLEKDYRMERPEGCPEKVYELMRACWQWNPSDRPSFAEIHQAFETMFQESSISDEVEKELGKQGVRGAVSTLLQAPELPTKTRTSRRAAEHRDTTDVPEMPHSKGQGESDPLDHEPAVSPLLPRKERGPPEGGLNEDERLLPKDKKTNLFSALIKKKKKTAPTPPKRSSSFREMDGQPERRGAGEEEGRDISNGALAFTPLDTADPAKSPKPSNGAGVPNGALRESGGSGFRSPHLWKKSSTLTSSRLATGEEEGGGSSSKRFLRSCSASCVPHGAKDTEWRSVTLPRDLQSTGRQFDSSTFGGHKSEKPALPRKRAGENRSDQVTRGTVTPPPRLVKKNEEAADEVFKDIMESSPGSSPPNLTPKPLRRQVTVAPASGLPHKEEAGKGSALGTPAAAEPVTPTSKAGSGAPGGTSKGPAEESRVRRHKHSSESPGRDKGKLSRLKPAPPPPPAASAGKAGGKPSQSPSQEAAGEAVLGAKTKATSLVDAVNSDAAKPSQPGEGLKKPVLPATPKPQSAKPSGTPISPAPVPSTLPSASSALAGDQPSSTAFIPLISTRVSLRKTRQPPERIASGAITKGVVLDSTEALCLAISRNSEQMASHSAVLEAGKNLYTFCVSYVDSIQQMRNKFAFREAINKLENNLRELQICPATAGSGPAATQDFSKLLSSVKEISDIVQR
Experimental: In order to simulate a light control process, the researchers treated K562 cells with the compound 4C-trans for 24 hours. Then the cells were transferred to fresh media and divided into 2 groups: one group was placed in a dark room (VIS group), and the other group was irradiated with UV after 0, 4, 8, 12, 16, and 24 hours of incubation to simulate the photo-isomerization process (UV group).
The specific operation method for simulating light control is as follows:
The compound 4C-trans at a final concentration of 100 nM was added to K562 cells, and the cells were incubated at 37° C. for 24 hours. The medium was washed off, and the cells were washed 2 times with 1*PBS. Then the cells were transferred to fresh 1640 medium (10% FBS, 1*glutamine) for culture, and divided into two groups: one group was placed in a dark room, and the other group was irradiated with UV-C light for 30 min every 4 hours. The cells were collected after transfer and incubation for 0, 4, 8, 16, and 24 hours respectively, and post-treatment of the cells was the same as that of immunoblotting.

[4] = biological target: T1, ABL; experiment: Immunoblotting, degradation of ABL protein in K562 cells
Experimental: (§3) Initially, researchers synthesized a 2C compound (FIG. 2A), which is a small molecule with the shortest joining chain (n=1). By using BCR-ABL and CRBN positive K562 cell lines, degradation of ABL and BCR-ABL proteins in the cells under the action of the compound was tested by immunoblotting. […] Then, the researchers tried to extend the joining chain (increasing the value of n).
(§4) In order to test the degradation effect of the compound 4C on c-ABL and BCR-ABL proteins in K562 cells, the researchers performed an immunoblotting experiment. […] In order to exclude the possibility that the compound 4C affected the ABL gene to generate false positive expression, the researchers used RT-qPCR in K562 cells to study the expression of the ABL gene.
The operation method of the immunoblotting experiment is as follows:
K562 cells after administration were incubated for 24 hours.
(§5) The medium was aspirated from the culture; the cells were washed with 1*PBS; and the cells were aspirated.
(§6) A weak RIPA lysate (100 μL) was added to lyse the cells for 40 min.
(§7) The sample was centrifuged at 13000 rpm, 4° C. for 15 min; 80 μl of supernatant was taken and added to 20 μl of loading buffer; the reaction solution was heated at 100° C. for 8 minutes; and the sample was placed on ice and cooled.
(§8) […] of sample was loaded on 10% SDS-PAGE gel. The sample was transferred to a PVDF membrane by a wet process.
(§9) A membrane was placed in 25 ml of blocking buffer and blocked at room temperature for 1 hour.
(§10) The membrane and the primary antibody (according to the appropriate dilution and diluent recommended in the product description) were placed in 10 ml of primary antibody dilution buffer, and incubated overnight at 4° C. and gently shaken from time to time.
(§11) Anti-rabbit IgG, HRP-linked Antibody (#7074, in a ratio of 1:2000) and anti-biotin, HRP-linked Antibody (#7075, in a ratio of 1:1000-1:3000) are diluted with 10 ml of blocking buffer to detect biotinylated protein standards. The membrane was incubated with the diluent, and gently shaken and incubated at room temperature for 1 hour.
(§12) A developer solution and the membrane were incubated together for 1 minute, the excess solution was discarded (the membrane remained moist) and the membrane was exposed.
(§13) Next, we tested the difference in the activity of different configurations of compound 4C in degradation of ABL and BCR-ABL proteins. […] The operation method of the immunoblotting experiment is the same as above.

[5] = biological target: T2, BCR-ABL fusion protein (Homo sapiens, UniProt P00519+P11274+Q96SW2, E27K); experiment: Immunoblotting, degradation of BCR-ABL protein in K562 cells
T2 construct: By using BCR-ABL and CRBN positive K562 cell lines; endogenous in cells; host or cells: K562
Experimental: as §3, §4
The operation method of the immunoblotting experiment is as follows: […]
as §5, §6, §7, §8, §9, §10, §11, §12, §13

[6] = system: A549; experiment: Cell viability test (CellTiter-Glo), A549; settings: A549, non-BCR-ABL dependent tumor cell line
Experimental: as §1, §2

Question: With Cc1nc(Nc2ncc(C(=O)Nc3c(C)cccc3Cl)s2)cc(N2CCN(CCCCOc3ccc(/N=N/c4ccc(C(=O)Nc5cccc6c5CN(C5CCC(=O)NC5=O)C6=O)cc4)cc3)CC2)n1 (stereo not shown) [Compound 4C, (E)-N-(2-chloro-6-methylphenyl)-2-((6-(4-(4-(4-((4-((2-(2,6-dioxopiperidin-3-yl)-1-oxoisoindolin-4-yl)carbamoyl)phenyl)diazenyl)phenoxy)butyl)piperazin-1-yl)-2-methylpyrimidin-4-yl)amino)thiazole-5-carboxamide] as the molecule, how does the “effect on cell viability” value [1] read?
Answer: Its value is “hardly affects”.

Question: What about the EC50 ([2]; Homo sapiens, K562 cells, 48 hours, CellTiter-Glo, read-out: median effective concentration (EC50)) of the same molecule?
Answer: Its EC50 is 0.028 µM.

Question: What about the “selectivity for the BCR-ABL dependent K562 cell line” value ([2]; versus A549, HCT116, HEK293T, MCF-7) of the same molecule?
Answer: Its value is “good selectivity”.

Question: What about the “ABL level after washout” value ([3]; UV-C 30 min every 4 hours (UV group)) of the same molecule?
Answer: Its value is “increased over time”.

Question: And the “ABL level after washout” value ([3]; dark room (VIS group), 0-24 hours)?
Answer: Its value is “almost disappeared”.

Question: And the “time at which ABL reached the maximum degradation” value ([4]; 250 nM)?
Answer: Its value is 32 h.

Question: What about the “ABL level, time-effect” value ([4]; 250 nM, 4 hours of incubation) of the same molecule?
Answer: The value was “significantly reduced”.

Question: And the “c-ABL level, time-effect” value ([4]; 250 nM, after 10 hours)?
Answer: The value was “significantly degraded”.

Question: And the “ABL protein degraded, dose-effect” value ([4]; 500 nM, 24 hours of incubation)?
Answer: Its value is “almost all”.

Question: And the “inhibition of expression of BCR-ABL and/or CRBN protein” value ([5]; BCR-ABL and/or CRBN positive leukemia K562 cells, to varying degrees)?
Answer: Its value is “can inhibit the expression”.

Question: And the “activity in degrading the BCR-ABL fusion protein, compared among the PROTAC molecules” value ([5]; K562 cells)?
Answer: The value was “best activity”.

Question: What about the “degradation of BCR-ABL fusion protein, dose-effect” value ([5]; K562 cells, 25 nM, 24 hours of incubation) of the same molecule?
Answer: The value was “slightly degrade”.

Question: What about the “time at which BCR-ABL reached the maximum degradation” value ([5]; K562 cells, 250 nM) of the same molecule?
Answer: The value was 32 h.

Question: And the “BCR-ABL level, time-effect” value ([5]; K562 cells, 250 nM, after 4 hours)?
Answer: The value was “slight decrease”.

Question: What about the “BCR-ABL level, time-effect” value ([5]; K562 cells, 250 nM, after 10 hours) of the same molecule?
Answer: The value was “significantly degraded”.

Question: What about the “BCR-ABL level, time-effect” value ([5]; K562 cells, 250 nM, after 10 hours, listed as 4C-trans) of the same molecule?
Answer: The value was “significantly reduced”.

Question: What about the “BCR-ABL fusion protein degraded, time-effect” value ([5]; K562 cells, 250 nM, after 32 hours) of the same molecule?
Answer: Its value is “more than 90%”.

Question: And the “BCR-ABL degraded, dose-effect” value ([5]; K562 cells, 500 nM, 24 hours of incubation)?
Answer: The value was “more than 80%”.

Question: And the “effect on cell viability” value [6]?
Answer: Its value is “hardly affects”.
